According to patent publication US20230357179A1, “RAF KINASE INHIBITORS AND METHODS OF USE THEREOF” (Deciphera Pharmaceuticals, LLC, priority 2021, published 2023):

What was measured:
[1] = molecular target: T1, B-Raf (V600E) kinase (Homo sapiens, UniProt P15056, V600E); experiment: Biochemical assay for B-Raf (V600E).1 (coupled pyruvate kinase/lactate dehydrogenase); conditions: read-out: BRAF V600E.1 IC50
T1 construct: B-Raf (V600E) residues 416-766 with a; GST (N); purchased SignalChem
Procedure: Biochemical Assay for B-Raf (V600E).1
Activity of B-Raf (V600E) (SEQ. ID NO: 4) kinase was determined spectroscopically using a coupled pyruvate kinase/lactate dehydrogenase assay that continuously monitors the ATP hydrolysis-dependent oxidation of NADH (e.g., Schindler et al., Science, 2000, 289, 1938-1942). Assays were conducted in 384-well plates (100 μL final volume) using 0.03 nM B-Raf (SignalChem), 1.5 units pyruvate kinase, 2.1 units lactate dehydrogenase, 1 mM phosphoenol pyruvate, 0.28 mM NADH, 30.1 nM MEK (SignalChem), and 1 mM ATP in assay buffer (100 mM Tris, pH 7.5, 15 mM MgCl2, 0.5 mM DTT, 0.1% octyl-glucoside, 0.002% (w/v) BSA, and 0.002% Triton X-100). Inhibition of B-Raf (V600E) was measured by adding serial diluted test compound (final assay concentration of 1% DMSO). A decrease in absorption at 340 nm was monitored continuously for 6 h at 30° C. on a multi-mode microplate reader (BioTek). The reaction rate was calculated using the 3 to 4 h time frame. The reaction rate at each concentration of compound was converted to percent inhibition using controls (i.e., reaction with no test compound and reaction with a known inhibitor) and IC50 values were calculated by fitting a four-parameter sigmoidal curve to the data using Prism (GraphPad software).

[2] = molecular target: T2, A-Raf kinase (Homo sapiens, UniProt P10398, Y301D/Y302D); experiment: Biochemical assay for A-Raf.1 (coupled pyruvate kinase/lactate dehydrogenase); conditions: read-out: ARAF.1 IC50
T2 construct: purchased Sigma
Procedure: Biochemical assay for A-Raf.1
Activity of A-Raf kinase (SEQ. ID NO. 1) was determined spectroscopically using a coupled pyruvate kinase/lactate dehydrogenase assay that continuously monitors the ATP hydrolysis-dependent oxidation of NADH (e.g., Schindler et al., Science, 2000, 289, 1938-1942). Assays were conducted in 384-well plates (100 μL final volume) using 5.55 nM A-Raf (Sigma), 1.5 units pyruvate kinase, 2.1 units lactate dehydrogenase, 1 mM phosphoenol pyruvate, 0.28 mM NADH, 30.1 nM MEK (SignalChem), and 1 mM ATP in assay buffer (100 mM Tris, pH 7.5, 15 mM MgCl2, 0.5 mM DTT, 0.1% octyl-glucoside, 0.002% (w/v) BSA, and 0.002% Triton X-100). Inhibition of A-Raf was measured by adding serial diluted test compound (final assay concentration of 1% DMSO). A decrease in absorption at 340 nm was monitored continuously for 6 h at 30° C. on a multi-mode microplate reader (BioTek). The reaction rate was calculated using the 4 to 5 h time frame. The reaction rate at each concentration of compound was converted to percent inhibition using controls (i.e., reaction with no test compound and reaction with a known inhibitor) and IC50 values were calculated by fitting a four-parameter sigmoidal curve to the data using Prism (GraphPad software).

[3] = molecular target: T3, B-Raf kinase (Homo sapiens, UniProt P15056); experiment: Biochemical assay for B-Raf.1 (coupled pyruvate kinase/lactate dehydrogenase); conditions: read-out: BRAF.1 IC50
T3 construct: GST (N); purchased Sigma
Procedure: Biochemical Assay for B-Raf.1
(§1) Activity of B-Raf kinase (SEQ. ID NO: 2) was determined spectroscopically using a coupled pyruvate kinase/lactate dehydrogenase assay that continuously monitors the ATP hydrolysis-dependent oxidation of NADH (e.g., Schindler et al., Science, 2000, 289, 1938-1942). Assays were conducted in 384-well plates (100 μL final volume) using 0.13 nM B-Raf (Sigma), 1.5 units pyruvate kinase, 2.1 units lactate dehydrogenase, 1 mM phosphoenol pyruvate, 0.28 mM NADH, 30.1 nM MEK (SignalChem), and 1 mM ATP in assay buffer (100 mM Tris, pH 7.5, 15 mM MgCl2, 0.5 mM DTT, 0.1% octyl-glucoside, 0.002% (w/v) BSA, and 0.002% Triton X-100). Inhibition of B-Raf was measured by adding serial diluted test compound (final assay concentration of 1% DMSO). A decrease in absorption at 340 nm was monitored continuously for 6 h at 30° C. on a multi-mode microplate reader (BioTek). The reaction rate was calculated using the 4 to 5 h time frame. The reaction rate at each concentration of compound was converted to percent inhibition using controls (i.e., reaction with no test compound and reaction with a known inhibitor) and IC50 values were calculated by fitting a four-parameter sigmoidal curve to the data using Prism (GraphPad software).

[4] = tested on: A375 cells; experiment: A375 cell proliferation assay (1), resazurin, 96-well; assay type: cell-based; conditions: Homo sapiens, A-375, inhibition of cell proliferation
Procedure: A375 Cell Proliferation Assay (1)
A375 cells (catalog (#CRL-1619) are obtained from the American Type Culture Collect (ATTC, Manassas, VA). Briefly, cells were grown in DMEM High Glucose supplemented with 10% characterized fetal bovine serum (Invitrogen, Carlsbad, CA) and 1% Penicillin/Streptomycin/L-Glutamine at 37° C., 5% CO2, and 95% humidity. Cells are expanded until reaching 70-95% confluency at which point they are sub-cultured or harvested for assay use. A serial dilution of test compound is dispensed into a 96-well black clear bottom plate in triplicate. Two thousand five hundred cells are added per well in 200 μL complete growth medium in the 96-well plate. Plates are incubated for 67-72 hours at 37° C., 5% CO2, and 95% humidity. At the end of the incubation, 40 μL of a 440 μM solution of resazurin (Sigma, St. Louis, MO) in PBS is added to each well of the plate and plates are incubated for an additional 5-6 hours at 37° C., 5% CO2, and 95% humidity. Plates are read on a Synergy2 or equivalent reader (Biotek, Winooski VT) using an excitation of 540 nm and an emission of 600 nm. Data is analyzed using Prism software (GraphPad, San Diego, CA) to calculate IC50 values.

[5] = molecular target: T4, C-Raf kinase (Homo sapiens, UniProt P04049, Y340D/Y341D); experiment: Biochemical assay for C-Raf.1 (coupled pyruvate kinase/lactate dehydrogenase); conditions: read-out: CRAF.1 IC50
T4 construct: Y340D,; GST (N); purchased Sigma
Procedure: Biochemical Assay for C-Raf.1
as §1, with “of C-Raf” for “of B-Raf”, “NO: 3)” for “NO: 2)”, “using 0.43” for “using 0.13”, “nM C-Raf” for “nM B-Raf”

T2 sequence (P10398 with tags, fused parts or gaps Y301D/Y302D): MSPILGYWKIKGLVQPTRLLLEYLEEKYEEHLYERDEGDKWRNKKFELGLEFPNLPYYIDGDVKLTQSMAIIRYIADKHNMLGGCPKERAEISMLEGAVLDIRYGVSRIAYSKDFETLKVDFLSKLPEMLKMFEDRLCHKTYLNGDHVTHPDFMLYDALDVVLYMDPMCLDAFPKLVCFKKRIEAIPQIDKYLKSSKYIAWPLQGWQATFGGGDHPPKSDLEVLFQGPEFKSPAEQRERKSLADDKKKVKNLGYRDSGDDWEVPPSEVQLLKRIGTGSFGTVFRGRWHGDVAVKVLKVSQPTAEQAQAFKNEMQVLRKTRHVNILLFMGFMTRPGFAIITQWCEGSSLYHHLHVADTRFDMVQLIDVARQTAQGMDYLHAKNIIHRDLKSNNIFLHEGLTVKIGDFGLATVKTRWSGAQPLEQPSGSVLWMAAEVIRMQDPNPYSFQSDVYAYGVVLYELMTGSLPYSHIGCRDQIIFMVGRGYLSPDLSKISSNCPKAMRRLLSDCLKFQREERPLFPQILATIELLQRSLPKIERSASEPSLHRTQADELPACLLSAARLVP
T3 sequence (P15056 416-766): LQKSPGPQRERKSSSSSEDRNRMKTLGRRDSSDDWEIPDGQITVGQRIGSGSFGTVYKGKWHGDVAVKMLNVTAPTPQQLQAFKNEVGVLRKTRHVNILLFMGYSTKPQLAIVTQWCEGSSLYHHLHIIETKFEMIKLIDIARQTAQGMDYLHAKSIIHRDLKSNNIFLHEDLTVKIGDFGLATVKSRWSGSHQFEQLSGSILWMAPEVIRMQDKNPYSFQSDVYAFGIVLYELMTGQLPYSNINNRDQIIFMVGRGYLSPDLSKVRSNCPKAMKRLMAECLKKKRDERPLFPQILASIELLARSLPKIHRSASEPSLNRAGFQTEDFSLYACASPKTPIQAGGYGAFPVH
T4 sequence (P04049 307-648 Y340D/Y341D): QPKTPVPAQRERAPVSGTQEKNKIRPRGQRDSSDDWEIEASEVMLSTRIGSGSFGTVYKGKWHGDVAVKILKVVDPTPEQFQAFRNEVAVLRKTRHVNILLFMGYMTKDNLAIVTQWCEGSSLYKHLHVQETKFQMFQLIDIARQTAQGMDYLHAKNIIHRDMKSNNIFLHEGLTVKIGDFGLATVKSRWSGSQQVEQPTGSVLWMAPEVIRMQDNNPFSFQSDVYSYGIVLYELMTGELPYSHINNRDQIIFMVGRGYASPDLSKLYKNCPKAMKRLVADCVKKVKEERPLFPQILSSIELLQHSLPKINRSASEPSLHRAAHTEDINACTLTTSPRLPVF
T1 sequence (P15056 416-766 V600E): as the sequence (P15056 416-766) above, with V185E counted along it

| Compound | IC50 [1] [nM] | IC50 [2] [nM] | IC50 [3] [nM] | IC50 [4] [nM] | IC50 [5] [nM] |
| --- | --- | --- | --- | --- | --- |
| Cc1ccc(NC(=O)NCCC(C)(C)C)cc1-c1cc(N2CCOCC2)nc(N2CC(O)C2)n1 [Example 11] | ≤ 100 | > 1000 | 500 to 1000 | 1000 to 10000 | 100 to 500 |
| Cc1ccc(NC(=O)NC2CCCCCC2)cc1-c1cc(OCCO)nc(N2CCOCC2)c1 [Example 13] | ≤ 100 | > 1000 | 100 to 500 | 1000 to 10000 | ≤ 100 |
| Cc1ccc(NC(=O)N[C@@H]2CCc3ccccc32)cc1-c1cc(OCCO)nc(N2CCOCC2)c1 [Example 15] | ≤ 100 | > 1000 | 100 to 500 | 1000 to 10000 | ≤ 100 |
| Cc1ncc(NC(=O)NCCC(C)(C)C)cc1-c1cc(N2CCOCC2)nc(N2CCOCC2)c1 [Example 19] | ≤ 100 | > 1000 | 500 to 1000 | 1000 to 10000 | 100 to 500 |
| Cc1ccc(NC(=O)N[C@H]2CCc3ccccc32)cc1-c1cc(OCCO)nc(N2CCOCC2)c1 [Example 20] | ≤ 100 | > 1000 | 500 to 1000 | 500 to 1000 | 100 to 500 |
| Cc1ccc(NC(=O)NCCC(C)(C)C#N)cc1-c1cc(-c2cnn(C)c2)nc(N2CCOCC2)c1 [Example 21] | ≤ 100 | > 1000 | 500 to 1000 | 1000 to 10000 | 100 to 500 |
| Cc1cc(F)c(NC(=O)NCCC2(C(F)(F)F)CC2)cc1-c1cc(N2CCOCC2)nc(N2CC[C@H](N(C)C)C2)c1 [Example 26] | ≤ 100 | > 1000 | 100 to 500 | 1000 to 10000 | 100 to 500 |
| Cc1cc(F)c(NC(=O)NCCC2(C(F)(F)F)CC2)cc1-c1cc(N2CCOCC2)nc(N2CC(N(C)C)C2)n1 [Example 30] | ≤ 100 | > 1000 | > 1000 | 1000 to 10000 | 500 to 1000 |
| Cc1ccc(NC(=O)NCCC2(C)CC2)cc1-c1cc(-c2cnn(C)c2)nc(N2CCOCC2)c1 [Example 37] | ≤ 100 | > 1000 | ≤ 100 | 1000 to 10000 | ≤ 100 |
| Cc1cc(F)c(NC(=O)NC2CCC(F)(F)CC2)cc1-c1cc(-c2cnn(C)c2)nc(N2CCOCC2)c1 [Example 39] | ≤ 100 | > 1000 | ≤ 100 | 1000 to 10000 | ≤ 100 |

Second part, the compound after the results:

| IC50 [1] [nM] | IC50 [2] [nM] | IC50 [3] [nM] | IC50 [4] [nM] | IC50 [5] [nM] | Compound |
| --- | --- | --- | --- | --- | --- |
| ≤ 100 | > 1000 | 100 to 500 | 1000 to 10000 | 100 to 500 | Cc1ccc(NC(=O)NCCC(C)(C)C)cc1-c1cc(-c2cnn(C)c2)nc(N2CCOCC2)c1 [Example 6] |
| ≤ 100 | > 1000 | ≤ 100 | 100 to 500 | ≤ 100 | Cc1cc(F)c(NC(=O)NCCC(C)(C)C)cc1-c1cc(OCCO)nc(C2CCOCC2)c1 [Example 9] |
| ≤ 100 | > 1000 | 100 to 500 | 1000 to 10000 | ≤ 100 | Cc1cc(F)c(NC(=O)NCCC(C)(C)F)cc1-c1cc(OCCO)nc(-c2ccncc2)c1 [Example 25] |
| ≤ 100 | > 1000 | ≤ 100 | 500 to 1000 | ≤ 100 | CNc1cc(-c2cc(-c3cc(NC(=O)NCCC4(C)CC4)c(F)cc3C)cc(OCCO)n2)ccn1 [Example 27] |
| ≤ 100 | > 1000 | 100 to 500 | 100 to 500 | ≤ 100 | CNc1cc(-c2cc(-c3cc(NC(=O)NCCC4(C(F)(F)F)CC4)c(F)cc3C)cc(OCCO)n2)ccn1 [Example 28] |
| ≤ 100 | > 1000 | 500 to 1000 | 1000 to 10000 | 100 to 500 | Cc1cc(F)c(NC(=O)Nc2cnn(C(C)(C)C)c2)cc1-c1cc(OCCN(C)C)nc(N2CCOCC2)c1 [Example 29] |
| ≤ 100 | > 1000 | 100 to 500 | 1000 to 10000 | 100 to 500 | Cc1cc(F)c(NC(=O)NCCC2(C)CC2)cc1-c1nc(NCCO)cc(N2CCOCC2)n1 [Example 31] |
| ≤ 100 | > 1000 | ≤ 100 | 1000 to 10000 | ≤ 100 | Cc1cc(F)c(NC(=O)NCCC2(C)CC2)cc1-c1cc(OCCO)nc(-c2ccncc2)c1 [Example 32] |
| ≤ 100 | > 1000 | 100 to 500 | 1000 to 10000 | 100 to 500 | Cc1cc(F)c(NC(=O)NCCC2(C)CC2)cc1-c1cc(OC2CCN(C)CC2)nc(-c2ccncc2)c1 [Example 36] |
| ≤ 100 | > 1000 | 100 to 500 | 1000 to 10000 | 100 to 500 | COC(C)(C)CCNC(=O)Nc1cc(-c2cc(OCCO)nc(-c3ccncc3)c2)c(C)cc1F [Example 40] |
| ≤ 100 | > 1000 | 100 to 500 | 1000 to 10000 | 100 to 500 | Cc1cc(F)c(NC(=O)NCCC(C)(C)C#N)cc1-c1cc(OCCO)nc(-c2ccncc2)c1 [Example 41] |
